# Reference: US8765809B2, “Ester derivative and use thereof” (Ajinomoto Co., Inc., priority 2006, dated 2014)
# Legend:
# [1] = Solubility of sample in liquid paraffin (note to Table 2); assay type: physicochemical; settings: 5 wt % in liquid paraffin
# [2] = test system: auricle of hairless mouse; test: Measurement of external blood circulation enhancing action: vasodilatory effect (red spots) after application to the ear; assay type: in vivo, hairless mouse (HR-1, female); parameters: key to Vasodilatory effect for hairless mouse (red spots) / Vasodilatory effect on hairless mouse (red spots): O: clear red spots is confirmed; Δ: weak red spots is confirmed; x: no development of red spots; settings: for vasodilatory / blood circulation enhancing effect, summary in words: summary of Tables 2 to 4
# Source text: The compound of each Example, capsinoid derivative and capsaicin were compared for vasodilatory effect using auricle of hairless mouse. A sample was applied to the right ear of hairless mouse (HR-1, female), and a control was applied to the left ear. […]
# [3] = Stability of compound: recovery rate (isolation yield) after contact with silica gel (PTLC); assay type: physicochemical; settings: for recovery at 30 min: PTLC, silica gel stirred with ethyl acetate 30 min, read-out: isolation yield (recovery rate) after PTLC, taken as stability upon contact with silica gel; for stability upon contact with silica gel: isolation and purification by PTLC
# Procedure: As mentioned above, the reaction yields of the compounds of respective Examples were determined by applying the products obtained by a condensation reaction to PTLC and stirring the silica gel containing the object compound with ethyl acetate for 30 min, followed by filtration and concentration under reduced pressure. Since the condensation reaction proceeds at a conversion rate of not less than 90% for all compounds, the recovery rate (yield) of each compound is considered to reflect stability upon contact of the compound with the silica gel.
# Using vanillyl alcohol (1.70 g, 11.0 mmol) instead of homovanillyl alcohol, and n-decanoic acid (1.72 g, 10 mmol) instead of 8-methylnonanoic acid in Example 1, similar reaction was performed. The residue was purified by PTLC to find that the yield of the obtained vanillyl decanoate was 1.33 g (4.31 mmol, 43.1%), and vanillyl decanoate was decomposed (i.e., unstabilized) by the contact with silica gel.
# [4] = 5 wt % (liquid paraffin), first column of Table 2
# [5] = application of 5 wt % in liquid paraffin
Compound,"solubility (note, words) [1]",recovery at 30 min [3] [%],stability upon contact with silica gel [3],Vasodilatory effect on hairless mouse (red spots) ([2]; 5 wt % (ethanol)),"weak red spots were observed at, time after application ([2]; 5 wt % (ethanol))","Vasodilatory effect for hairless mouse (red spots) [2, 4]","vasodilatory / blood circulation enhancing effect, summary in words [2]","blood circulation enhancing effect (note, words) [2, 5]","red spots disappeared in [2, 5]",red spots almost disappeared at ([2]; 5 wt % (ethanol)),"Vasodilatory effect for hairless mouse (red spots) ([2]; 5 wt % (liquid paraffin) as printed, second column of Table 2)"
"COc1cc(CCOC(=O)CCCCCC(C)C)ccc1O [compound I-1, homovanillyl 7-methyloctanoate]","sparingly soluble, thus red",–,–,Δ,Weak red spots were observed at 20 min,x,weak blood circulation enhancing effect,–,–,–,–
"COc1cc(CCOC(=O)CCCCCCC(C)C)ccc1O [compound I, homovanillyl 8-methylnonanoate]",–,93.2,far stabler than vanillyl decanoate,–,–,Δ,weak blood circulation enhancing effect,effect was weak and,disappeared in 1 hr,–,–
"COc1cc(CCOC(=O)CCCCC(C)C)ccc1O [compound I-2, homovanillyl 6-methylheptanoate]","sparingly soluble, thus red",–,–,Δ,Weak red spots were observed at 20 min,x,weak blood circulation enhancing effect,–,–,–,–
"COc1cc(CCCOC(=O)CCCC(C)C)ccc1O [compound J-3, 3-(3-methoxy-4-hydroxyphenyl)propyl 5-methylhexanoate]",–,–,–,∘,Weak red spots were observed at 10 min,Δ,weak blood circulation enhancing effect,–,spots disappeared in 1 hr,almost disappeared at 30 min later.,x

# The next lines start with results.
"solubility (note, words) [1]",recovery at 30 min [3] [%],stability upon contact with silica gel [3],Compound,Vasodilatory effect on hairless mouse (red spots) ([2]; 5 wt % (ethanol)),"weak red spots were observed at, time after application ([2]; 5 wt % (ethanol))","Vasodilatory effect for hairless mouse (red spots) [2, 4]","vasodilatory / blood circulation enhancing effect, summary in words [2]","blood circulation enhancing effect (note, words) [2, 5]","red spots disappeared in [2, 5]",red spots almost disappeared at ([2]; 5 wt % (ethanol)),"Vasodilatory effect for hairless mouse (red spots) ([2]; 5 wt % (liquid paraffin) as printed, second column of Table 2)"
"sparingly soluble, thus red",–,–,"COc1cc(CCOC(=O)CCCC(C)C)ccc1O [compound I-3, homovanillyl 5-methylhexanoate]",Δ,Weak red spots were observed at 20 min,x,weak blood circulation enhancing effect,–,–,–,–
–,43.1,decomposed,"CCCCCCCCCC(=O)OCc1ccc(O)c(OC)c1 [vanillyl decanoate, reference compound]",–,–,–,–,–,–,–,–
